{"source": "paper PMC7248705", "about": "“A Pharmacokinetic and Pharmacodynamic Evaluation of the Anti-Hepatocellular Carcinoma Compound 4-N-Carbobenzoxy-gemcitabine (Cbz-dFdC)” (Molecules, 2020)", "key": {"CES1": {"molecular_target": "T1, CES1 (Homo sapiens, UniProt P23141)", "T1 construct": "purchased Ruid Liver Disease Research Co., Ltd. (Shanghai, China)", "T1 sequence (P23141 18-567)": "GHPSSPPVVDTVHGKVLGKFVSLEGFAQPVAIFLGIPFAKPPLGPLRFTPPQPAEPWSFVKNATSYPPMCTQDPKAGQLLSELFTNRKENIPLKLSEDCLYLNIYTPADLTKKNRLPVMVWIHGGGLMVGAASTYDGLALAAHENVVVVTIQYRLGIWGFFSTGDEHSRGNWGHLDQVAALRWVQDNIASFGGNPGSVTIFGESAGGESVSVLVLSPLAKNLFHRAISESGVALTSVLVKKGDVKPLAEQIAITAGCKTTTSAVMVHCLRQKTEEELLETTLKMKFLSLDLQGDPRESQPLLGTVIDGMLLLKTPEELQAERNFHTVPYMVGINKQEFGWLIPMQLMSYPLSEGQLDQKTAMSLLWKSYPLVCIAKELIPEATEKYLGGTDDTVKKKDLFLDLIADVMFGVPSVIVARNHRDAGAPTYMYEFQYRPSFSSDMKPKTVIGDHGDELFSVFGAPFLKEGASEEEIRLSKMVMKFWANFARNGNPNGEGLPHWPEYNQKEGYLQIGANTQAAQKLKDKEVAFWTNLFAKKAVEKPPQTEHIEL", "test": "Enzymatic kinetics in vitro, human CES1 recombinase", "format": "in vitro ADME", "conditions": "recombinant human CES1, 37 °C, 30 min, 5–200 μM Cbz-dFdC, read-out: Clint, disappearance of Cbz-dFdC", "method": "(§1) The SD rats without any treatment were sacrificed after adapting to the environment. Blank blood, the liver, the kidney, and the intestine were collected and treated as described in Section 4.4. Part of the homogenate was removed for centrifugation for 20 min at 9000× g at 4 °C, and the supernatant was obtained as tissue S9. The tissue homogenate and S9 were diluted to […] after the protein concentration was determined by the BCA kit (Abcam, Cambridge, MA, USA). Each matrix consisted of 45 uL of the matrix mixed with 5 uL of the drug dissolved in normal saline solution for about 3 min, followed by incubation at 37 °C in a water bath. Then, acetonitrile containing the internal standard was added to terminate the reaction. Human tissue S9 and human CES1 recombinase purchased from the Ruid Liver Disease Research Co., Ltd. (Shanghai, China) were incubated under the same conditions. An enzyme kinetic study was obtained from the matrix following incubation at 37 °C for 30 min with 5, 10, 20, 50, 100, or 200 μM of Cbz-dFdC. We estimated the parameters and simulated curves according to the Eadie–Hofstee method."}, "HepG2 cells": {"test_system": "HepG2 cells", "test": "Cell uptake in HepG2 cells", "format": "cell-based, human", "method": "The cells were cultured on a 96-well plate for 4 h for each well. Then, dimethyl sulfoxide solution containing 0.1–100 mM of Cbz-dFdC and dFdC was diluted 1000 times with the medium before administration. A total of 200 uL of medium containing Cbz-dFdC and dFdC was added per well (n = 6). The medium with drugs was discarded, and 10% CCK-8 solution was added. Then, the absorbance value was read at a wavelength of 450 nm after incubation at 37 °C, for 30 min. The drug concentration of Cbz-dFdC and dFdC in cell were determined by a previously established method."}, "[1]": {"test": "Enzymatic kinetics in vitro, rat blood", "format": "in vitro ADME", "conditions": "37 °C, 30 min, 5–200 μM Cbz-dFdC", "method": "as §1"}, "[2]": {"test": "Incubation in human plasma and S9 of the kidney and intestine", "format": "in vitro ADME", "method": "as §1"}, "[3]": {"test": "Plasma pharmacokinetics in vivo", "conditions": "SD, rat, po; plasma analyte after i.g. Cbz-dFdC 22 mg/kg, rats", "method": "SD rats (n = 6) were intragastrically administered Cbz-dFdC (22 mg/kg) and intravenously injected with dFdC (15 mg/kg), and 150 μL blood samples were collected from the retro-orbital route in the right eye at 0, 5, 10, 20, and 30 min and at 1, 2, 4, 6, 12, 24, and 48 h, using heparinized tubes. Without delay, the blood was directly centrifuged at 8000× g at 4 °C for 5 min. Then, the supernatant plasma was collected and immediately extracted using a previously established method or was frozen at −80 °C until further analysis."}, "[4]": {"test": "Enzymatic kinetics in vitro, rat kidney homogenate", "format": "in vitro ADME", "conditions": "37 °C, 30 min, 5–200 μM Cbz-dFdC", "method": "as §1"}, "[5]": {"test": "Tissue distribution (liver, kidney, intestine)", "format": "in vivo, SD rats", "conditions": "rats", "method": "In order to investigate the drug distribution in different tissues and the relationship between CES1 activity and tissue concentration, we conducted tissue distribution experiments. The SD rats were divided into six groups (n = 6 for each group). After a single intragastric administration of Cbz-dFdC (22 mg/kg) and a single injected administration of dFdC (15 mg/kg), the SD rats were sacrificed at 0.5 h, 1.5 h, and 4 h, and the liver, kidney, and intestine were collected. The liver was perfused with ice-cold normal saline and then removed, followed by ice-cold normal saline cleaning. The kidney and intestine were directly removed and then washed with ice-cold normal saline. All of the above operations were carried out on ice, and the removed tissue was stored in an ice bath. The liver, kidney, and intestine were cut and crushed, homogenized with an appropriate amount of phosphate buffer by a homogenizer, and then diluted 5 times with ice-cold PBS buffer (in an ice bath). The tissue homogenates were determined with a BCA kit for protein concentration, a CES1 kit for CES1 activity, and UFLC–MS/MS for drug tissue concentration after pretreatment; the pretreatment method was reported previously."}, "[6]": {"test": "Enzymatic kinetics in vitro, human liver S9", "format": "in vitro ADME", "method": "as §1"}, "[7]": {"test": "Enzymatic kinetics in vitro, rat plasma", "format": "in vitro ADME", "conditions": "37 °C, 30 min, 5–200 μM Cbz-dFdC", "method": "as §1"}, "[8]": {"conditions": "read-out: Km, appearance of dFdC"}, "[9]": {"conditions": "read-out: Km, disappearance of Cbz-dFdC"}, "[10]": {"conditions": "SD, read-out: Clint, disappearance of Cbz-dFdC"}, "[11]": {"conditions": "Human Liver S9, 37 °C, 30 min, 5–200 μM Cbz-dFdC"}}, "note": "“Also recorded” adds a separate entry of the source.", "data": [{"compound": "O=C(Nc1ccn([C@@H]2O[C@H](CO)[C@@H](O)C2(F)F)c(=O)n1)OCc1ccccc1", "note": "[Cbz-dFdC, 4-N-carbobenzoxy-gemcitabine]", "values": [{"measurement": "microsomal CLint", "setting": "CES1", "result": 72700, "unit": "µL/min/mg"}, {"measurement": "intracellular concentration (cell uptake)", "setting": "HepG2 cells", "result": "low"}, {"measurement": "Vmax, appearance of dFdC", "setting": "[1]", "result": 178.5, "unit": "nmol/min/mg pro"}, {"measurement": "Vmax, disappearance of Cbz-dFdC", "setting": "[1]", "result": 341.1, "unit": "nmol/min/mg pro"}, {"measurement": "Km", "setting": "[1]; [8]", "result": 73.2, "unit": "µM"}, {"measurement": "Km", "setting": "[1]; [9]", "result": 69.8, "unit": "µM"}, {"measurement": "microsomal CLint", "setting": "[1]; [10]", "result": 4890, "unit": "µL/min/mg"}, {"measurement": "stability towards CES2 in humans", "setting": "[2]; concluded from tissue-specific CES expression, humans", "result": "relatively stable in CES2"}, {"measurement": "degradation in human plasma and S9 of the kidney and intestine", "setting": "[2]; human plasma, kidney S9, intestine S9", "result": "did not degrade"}, {"measurement": "AUC(0-inf)", "setting": "[3]", "result": "2690 ± 457", "unit": "ng·h/mL"}, {"measurement": "Cmax", "setting": "[3]", "result": "451 ± 107", "unit": "ng/mL"}, {"measurement": "Tmax", "setting": "[3]", "result": 2, "unit": "h"}, {"measurement": "half-life", "setting": "[3]", "result": "9.91 ± 1.87", "unit": "h"}, {"measurement": "Vmax, appearance of dFdC", "setting": "[4]", "result": 44.3, "unit": "nmol/min/mg pro"}, {"measurement": "Vmax, disappearance of Cbz-dFdC", "setting": "[4]", "result": 162.7, "unit": "nmol/min/mg pro"}, {"measurement": "Km", "setting": "[4]; [8]", "result": 48.9, "unit": "µM"}, {"measurement": "Km", "setting": "[4]; [9]", "result": 148, "unit": "µM"}, {"measurement": "microsomal CLint", "setting": "[4]; [10]", "result": 1100, "unit": "µL/min/mg"}, {"measurement": "Cbz-dFdC level in the intestine versus other tissues", "setting": "[5]; after i.g. Cbz-dFdC 22 mg/kg, liver, kidney, intestine, especially at 0.5 h", "result": "significantly higher than that in the other tissues; also recorded: mainly distributed in the intestine"}, {"measurement": "tissue penetration", "setting": "[5]; drug concentration in tissue lower than plasma concentration", "result": "weak tissue penetration"}, {"measurement": "Vmax, appearance of dFdC", "setting": "[6]; [11]", "result": 480.6, "unit": "nmol/min/mg pro"}, {"measurement": "Vmax, disappearance of Cbz-dFdC", "setting": "[6]; [11]", "result": 1491.3, "unit": "nmol/min/mg pro"}, {"measurement": "microsomal CLint", "setting": "[6]; Human Liver S9, 37 °C, 30 min, 5–200 μM Cbz-dFdC, read-out: Clint, disappearance of Cbz-dFdC", "result": 13800, "unit": "µL/min/mg"}, {"measurement": "Km at 30 min", "setting": "[6]; Human Liver S9, 37 °C, 30 min, 5–200 μM Cbz-dFdC, read-out: Km, disappearance of Cbz-dFdC", "result": 108, "unit": "µM"}, {"measurement": "stability in human liver S9", "setting": "[6]; human liver S9, easily hydrolyzed into dFdC", "result": "unstable"}, {"measurement": "Vmax, appearance of dFdC", "setting": "[7]", "result": 230.4, "unit": "nmol/min/mg pro"}, {"measurement": "Vmax, disappearance of Cbz-dFdC", "setting": "[7]", "result": 486.2, "unit": "nmol/min/mg pro"}, {"measurement": "Km", "setting": "[7]; [8]", "result": 101, "unit": "µM"}, {"measurement": "Km", "setting": "[7]; [9]", "result": 90.3, "unit": "µM"}, {"measurement": "microsomal CLint", "setting": "[7]; [10]", "result": 5380, "unit": "µL/min/mg"}]}]}
